# According to ChEMBL document CHEMBL3351502, “Flavones: an important scaffold for medicinal chemistry” (Eur J Med Chem, 2014):
# How the values were obtained:
# [1] = species on record: Homo sapiens; assay: Inhibition of alpha glucosidase (unknown origin) at 0.5 mg/ml
# [2] = Inhibition of advanced glycation end product formation; format: physicochemical
# [3] = molecular target: Xanthine dehydrogenase/oxidase (Homo sapiens, UniProt P47989); assay: Inhibition of xanthine oxidase (unknown origin)
# Xanthine dehydrogenase/oxidase, sequence (P47989 whole entry): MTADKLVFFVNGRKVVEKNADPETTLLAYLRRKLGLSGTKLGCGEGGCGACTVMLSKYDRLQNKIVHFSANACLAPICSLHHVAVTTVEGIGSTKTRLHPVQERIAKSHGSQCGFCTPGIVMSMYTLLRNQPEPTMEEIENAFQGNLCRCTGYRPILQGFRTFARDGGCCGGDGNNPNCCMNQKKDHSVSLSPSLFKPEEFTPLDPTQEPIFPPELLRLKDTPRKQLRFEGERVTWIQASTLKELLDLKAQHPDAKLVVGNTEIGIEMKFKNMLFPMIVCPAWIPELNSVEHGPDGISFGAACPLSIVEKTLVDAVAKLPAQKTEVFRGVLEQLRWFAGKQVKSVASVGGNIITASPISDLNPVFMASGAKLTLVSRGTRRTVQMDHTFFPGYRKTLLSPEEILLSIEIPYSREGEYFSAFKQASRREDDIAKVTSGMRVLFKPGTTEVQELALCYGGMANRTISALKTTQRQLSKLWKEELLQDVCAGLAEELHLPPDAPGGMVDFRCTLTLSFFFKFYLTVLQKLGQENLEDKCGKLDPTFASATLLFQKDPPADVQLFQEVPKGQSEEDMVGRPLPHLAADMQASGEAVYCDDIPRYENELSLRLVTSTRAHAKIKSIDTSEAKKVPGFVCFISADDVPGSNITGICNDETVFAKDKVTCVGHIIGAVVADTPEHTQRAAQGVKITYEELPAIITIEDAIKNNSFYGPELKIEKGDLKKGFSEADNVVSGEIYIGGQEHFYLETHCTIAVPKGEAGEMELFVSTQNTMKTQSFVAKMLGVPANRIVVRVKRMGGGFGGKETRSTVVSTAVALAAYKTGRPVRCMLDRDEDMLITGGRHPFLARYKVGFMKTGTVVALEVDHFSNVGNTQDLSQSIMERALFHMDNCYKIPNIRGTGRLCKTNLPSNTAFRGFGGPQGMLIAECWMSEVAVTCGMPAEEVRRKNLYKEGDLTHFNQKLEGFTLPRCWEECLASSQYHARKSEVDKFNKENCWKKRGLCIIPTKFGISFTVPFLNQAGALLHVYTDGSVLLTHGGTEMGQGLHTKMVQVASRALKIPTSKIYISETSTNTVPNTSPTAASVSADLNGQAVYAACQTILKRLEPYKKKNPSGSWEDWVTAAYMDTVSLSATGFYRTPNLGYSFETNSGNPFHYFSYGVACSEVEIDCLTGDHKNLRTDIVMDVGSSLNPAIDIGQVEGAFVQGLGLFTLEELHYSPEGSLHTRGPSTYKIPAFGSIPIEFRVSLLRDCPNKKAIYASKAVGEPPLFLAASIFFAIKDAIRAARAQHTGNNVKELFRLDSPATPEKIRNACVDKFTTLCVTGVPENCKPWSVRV
# [4] = system: LNCaP; assay: Downregulation of prostate specific antigen secretion in human LNCAP cells; format: functional, cell-based
# [5] = molecular target: T1, Human immunodeficiency virus type 1 integrase (Human immunodeficiency virus 1, UniProt Q7ZJM1); assay: Inhibition of HIV-1 integrase terminal cleavage activity
# T1 sequence (Q7ZJM1 whole entry): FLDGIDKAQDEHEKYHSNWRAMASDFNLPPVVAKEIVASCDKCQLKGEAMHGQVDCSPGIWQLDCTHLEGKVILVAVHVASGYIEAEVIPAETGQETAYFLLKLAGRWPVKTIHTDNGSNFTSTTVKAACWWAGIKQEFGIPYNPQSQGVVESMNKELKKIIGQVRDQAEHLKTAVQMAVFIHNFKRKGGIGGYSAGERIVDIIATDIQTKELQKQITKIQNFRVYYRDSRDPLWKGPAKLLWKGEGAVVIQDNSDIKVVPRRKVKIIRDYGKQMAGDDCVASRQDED
# [6] = molecular target: T1, Human immunodeficiency virus type 1 integrase; assay: Inhibition of HIV-1 integrase strand transfer activity
# [7] = molecular target: T2, Cystic fibrosis transmembrane conductance regulator (Homo sapiens, UniProt P13569); assay: Stimulation of CFTR (unknown origin)
# T2 sequence (P13569 whole entry): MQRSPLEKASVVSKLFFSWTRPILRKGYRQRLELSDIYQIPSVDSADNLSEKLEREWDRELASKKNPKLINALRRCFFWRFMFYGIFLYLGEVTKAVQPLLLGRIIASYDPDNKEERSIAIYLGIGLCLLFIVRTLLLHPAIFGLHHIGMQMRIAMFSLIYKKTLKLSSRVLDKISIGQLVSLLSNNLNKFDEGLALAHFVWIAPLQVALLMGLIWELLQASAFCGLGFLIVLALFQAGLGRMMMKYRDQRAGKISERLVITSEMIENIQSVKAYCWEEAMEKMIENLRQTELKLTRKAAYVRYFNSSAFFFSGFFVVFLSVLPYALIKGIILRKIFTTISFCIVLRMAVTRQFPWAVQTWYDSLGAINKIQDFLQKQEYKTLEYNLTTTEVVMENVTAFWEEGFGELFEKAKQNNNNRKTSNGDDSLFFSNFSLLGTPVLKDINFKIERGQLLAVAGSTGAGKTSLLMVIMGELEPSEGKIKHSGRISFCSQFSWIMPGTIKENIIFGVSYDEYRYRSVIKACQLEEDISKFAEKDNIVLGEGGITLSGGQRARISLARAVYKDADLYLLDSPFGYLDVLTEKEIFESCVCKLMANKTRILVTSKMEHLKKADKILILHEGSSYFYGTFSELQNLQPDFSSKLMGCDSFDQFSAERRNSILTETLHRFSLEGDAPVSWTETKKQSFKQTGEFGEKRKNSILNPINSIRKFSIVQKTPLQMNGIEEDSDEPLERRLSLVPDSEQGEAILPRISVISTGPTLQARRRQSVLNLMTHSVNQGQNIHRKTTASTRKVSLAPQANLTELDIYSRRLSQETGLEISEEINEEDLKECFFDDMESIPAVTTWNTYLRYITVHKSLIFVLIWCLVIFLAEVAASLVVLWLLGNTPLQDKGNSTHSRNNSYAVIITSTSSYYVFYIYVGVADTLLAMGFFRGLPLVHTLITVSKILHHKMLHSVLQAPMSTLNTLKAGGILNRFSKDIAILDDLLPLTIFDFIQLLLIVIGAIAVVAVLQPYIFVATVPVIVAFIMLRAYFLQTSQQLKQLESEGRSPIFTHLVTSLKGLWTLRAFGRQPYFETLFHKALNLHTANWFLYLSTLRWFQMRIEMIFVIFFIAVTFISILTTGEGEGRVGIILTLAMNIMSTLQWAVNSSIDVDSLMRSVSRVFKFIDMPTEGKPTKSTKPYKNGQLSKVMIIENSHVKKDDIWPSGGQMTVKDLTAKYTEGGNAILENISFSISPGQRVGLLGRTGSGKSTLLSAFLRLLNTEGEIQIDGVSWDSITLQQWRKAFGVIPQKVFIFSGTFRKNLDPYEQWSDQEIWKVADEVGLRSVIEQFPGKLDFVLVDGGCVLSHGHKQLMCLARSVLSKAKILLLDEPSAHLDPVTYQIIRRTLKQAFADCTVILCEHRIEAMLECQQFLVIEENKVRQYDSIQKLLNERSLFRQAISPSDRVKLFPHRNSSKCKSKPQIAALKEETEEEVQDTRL
# [8] = molecular target: T2, Cystic fibrosis transmembrane conductance regulator; assay: Inhibition of forskolin-stimulated CFTR (unknown origin)
# [9] = molecular target: T3, Adenosine receptor A3 (Homo sapiens, UniProt P0DMS8); assay: Binding affinity to human adenosine A3 receptor
# T3 sequence (P0DMS8 whole entry): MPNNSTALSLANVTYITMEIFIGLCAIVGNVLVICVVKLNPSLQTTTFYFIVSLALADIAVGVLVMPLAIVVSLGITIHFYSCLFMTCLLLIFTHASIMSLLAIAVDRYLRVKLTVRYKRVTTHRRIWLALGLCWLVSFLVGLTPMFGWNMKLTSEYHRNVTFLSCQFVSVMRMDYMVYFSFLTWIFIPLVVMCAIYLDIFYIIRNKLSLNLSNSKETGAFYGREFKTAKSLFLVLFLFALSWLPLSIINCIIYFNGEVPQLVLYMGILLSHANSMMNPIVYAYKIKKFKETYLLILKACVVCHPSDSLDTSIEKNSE
# [10] = molecular target: Telomerase reverse transcriptase (Homo sapiens, UniProt O14746); assay: Inhibition of telomerase activity (unknown origin)
# Telomerase reverse transcriptase, sequence (O14746 whole entry): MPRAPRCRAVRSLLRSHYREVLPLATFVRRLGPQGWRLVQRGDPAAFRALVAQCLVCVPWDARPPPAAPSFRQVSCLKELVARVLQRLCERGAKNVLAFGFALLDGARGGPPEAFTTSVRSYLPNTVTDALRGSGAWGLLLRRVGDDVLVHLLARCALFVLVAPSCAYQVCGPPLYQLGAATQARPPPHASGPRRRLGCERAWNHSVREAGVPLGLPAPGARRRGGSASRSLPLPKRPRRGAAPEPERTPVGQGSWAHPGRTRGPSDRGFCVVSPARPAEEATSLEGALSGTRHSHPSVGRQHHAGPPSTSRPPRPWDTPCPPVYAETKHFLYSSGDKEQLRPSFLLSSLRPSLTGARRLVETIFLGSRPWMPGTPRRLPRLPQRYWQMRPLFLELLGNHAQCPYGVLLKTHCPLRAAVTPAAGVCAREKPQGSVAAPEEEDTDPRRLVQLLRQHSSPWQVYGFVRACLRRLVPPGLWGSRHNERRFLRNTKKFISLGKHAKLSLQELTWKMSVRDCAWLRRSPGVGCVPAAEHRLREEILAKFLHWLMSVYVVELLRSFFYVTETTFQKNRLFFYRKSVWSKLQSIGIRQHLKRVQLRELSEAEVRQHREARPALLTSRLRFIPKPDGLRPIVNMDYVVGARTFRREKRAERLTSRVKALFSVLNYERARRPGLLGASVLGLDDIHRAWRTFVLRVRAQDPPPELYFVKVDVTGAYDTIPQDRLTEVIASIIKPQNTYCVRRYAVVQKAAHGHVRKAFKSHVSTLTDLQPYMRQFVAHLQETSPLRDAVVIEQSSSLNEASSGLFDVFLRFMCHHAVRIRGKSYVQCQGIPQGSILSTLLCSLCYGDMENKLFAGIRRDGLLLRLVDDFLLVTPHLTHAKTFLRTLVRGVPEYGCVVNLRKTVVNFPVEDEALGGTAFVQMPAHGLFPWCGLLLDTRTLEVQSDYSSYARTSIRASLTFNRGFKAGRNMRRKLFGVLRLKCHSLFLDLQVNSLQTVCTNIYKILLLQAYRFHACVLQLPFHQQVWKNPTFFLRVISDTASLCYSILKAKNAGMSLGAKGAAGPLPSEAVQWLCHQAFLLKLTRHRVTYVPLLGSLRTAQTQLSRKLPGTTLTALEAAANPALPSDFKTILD
# [11] = system: Plasmodium falciparum; assay: Antimicrobial activity against Plasmodium falciparum; format: functional, organism-based
# [12] = system: Leishmania; assay: Leishmanicidal activity against Leishmania; format: functional, organism-based
# [13] = system: Staphylococcus aureus; assay: Antimicrobial activity against Staphylococcus aureus; format: functional
# [14] = species on record: Rattus norvegicus; assay: Antiulcer activity in rat assessed as protection from indomethacin-induced gastric damage; format: functional; conditions: Stomach
# [15] = molecular target: Acetylcholinesterase (Homo sapiens, UniProt P22303); assay: Inhibition of AChE (unknown origin)
# Acetylcholinesterase, sequence (P22303 whole entry): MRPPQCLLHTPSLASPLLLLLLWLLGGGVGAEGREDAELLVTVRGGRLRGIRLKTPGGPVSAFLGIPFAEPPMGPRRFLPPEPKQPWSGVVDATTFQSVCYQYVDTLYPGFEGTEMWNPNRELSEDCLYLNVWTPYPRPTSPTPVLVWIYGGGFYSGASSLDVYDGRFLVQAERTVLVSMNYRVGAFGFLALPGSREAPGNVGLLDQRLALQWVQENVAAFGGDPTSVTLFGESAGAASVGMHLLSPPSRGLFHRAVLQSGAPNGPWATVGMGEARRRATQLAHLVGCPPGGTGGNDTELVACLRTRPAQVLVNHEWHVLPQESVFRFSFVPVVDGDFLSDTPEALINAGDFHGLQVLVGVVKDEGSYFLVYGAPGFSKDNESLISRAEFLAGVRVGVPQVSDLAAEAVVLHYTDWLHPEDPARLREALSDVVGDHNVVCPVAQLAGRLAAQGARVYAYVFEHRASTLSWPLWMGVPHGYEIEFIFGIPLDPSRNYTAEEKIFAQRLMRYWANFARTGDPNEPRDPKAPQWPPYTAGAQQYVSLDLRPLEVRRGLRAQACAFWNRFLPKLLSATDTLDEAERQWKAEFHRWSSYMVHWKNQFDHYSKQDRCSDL
# [16] = Inhibition of alpha glucosidase (unknown origin); design: species or system Homo sapiens
# [17] = molecular target: 4-aminobutyrate aminotransferase, mitochondrial (Homo sapiens, UniProt P80404); assay: Inhibition of GABA transaminase (unknown origin)
# [18] = Competitive inhibition of muscarinic receptor (unknown origin); design: species or system Homo sapiens
# [19] = molecular target: Benzodiazepine receptors; peripheral & central; assay: Binding affinity to benzodiazepine receptor (unknown origin); format: protein assay, Homo sapiens
# [20] = molecular target: T4, Succinate-semialdehyde dehydrogenase, mitochondrial (Homo sapiens, UniProt P51649); assay: Inhibition of SSADH (unknown origin)
# T4 sequence (P51649 whole entry): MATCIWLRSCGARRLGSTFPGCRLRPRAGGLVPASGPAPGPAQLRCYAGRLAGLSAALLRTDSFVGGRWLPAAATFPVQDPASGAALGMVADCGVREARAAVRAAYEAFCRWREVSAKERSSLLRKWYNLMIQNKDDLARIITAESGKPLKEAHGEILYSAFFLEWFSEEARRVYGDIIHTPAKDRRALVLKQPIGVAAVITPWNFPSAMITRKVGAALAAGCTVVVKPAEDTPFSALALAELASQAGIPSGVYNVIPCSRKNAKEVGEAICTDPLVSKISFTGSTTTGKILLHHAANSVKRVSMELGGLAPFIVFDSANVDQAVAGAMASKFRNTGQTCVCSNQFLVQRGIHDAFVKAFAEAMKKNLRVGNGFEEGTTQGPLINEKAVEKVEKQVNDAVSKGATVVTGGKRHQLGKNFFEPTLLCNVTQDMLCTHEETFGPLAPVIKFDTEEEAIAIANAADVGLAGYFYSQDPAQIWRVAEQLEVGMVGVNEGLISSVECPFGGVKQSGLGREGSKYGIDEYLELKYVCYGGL
compound,measurement,setting,value
O=c1cc(-c2ccc(O)c(O)c2)oc2cc(O)cc(O)c12 [LUTEOLIN],inhibition,[1],36%
same,IC50,[2],99 µM
same,Ki,[3],2.9 µM
same,IC50,[4],5 µM
O=c1cc(-c2ccc(O)c(O)c2)oc2cc(O[C@@H]3O[C@H](CO)[C@@H](O)[C@H](O)[C@H]3OS(=O)(=O)O)cc(O)c12,IC50,[5],2100 µM
same,IC50,[6],400 µM
O=c1cc(-c2ccc(O)cc2)oc2cc(O)cc(O)c12 [APIGENIN],Ki,[3],0.52 µM
same,EC50,[7],9 µM
same,Ki,[8],81 µM
Cc1ccc(-c2oc3ccc(Cl)cc3c(=O)c2O)c(OC(C)C)c1,Ki,[9],0.56 µM
O=c1cc(-c2ccc(OCc3ccc(Cl)nc3)cc2)oc2cc(OCc3ccc(Cl)nc3)ccc12,IC50,[10],36.5 µM
O=C1c2c(O)cc(O)cc2O[C@H](c2ccc(O)cc2)[C@H]1[C@@H]1C(=O)c2c(O)cc(O)cc2O[C@H]1c1ccc(O)cc1,IC50,[11],7.3 µM
O=c1cc(-c2ccc(OCCOCCN(CCOCCOc3ccc(-c4cc(=O)c5ccccc5o4)cc3)Cc3ccncc3)cc2)oc2ccccc12,IC50,[12],0.13 µM
COc1cc([C@H]2Oc3cc(-c4cc(=O)c5ccccc5o4)ccc3O[C@@H]2CO)ccc1O,MIC,[13],0.08 µg/mL
COc1cccc2oc(-c3ccc(F)cc3)cc(=O)c12,ED50,[14],5.5 mg/kg
O=c1cc(-c2ccc(Oc3c(O)cc(O)c4c(=O)cc(-c5ccc(O)cc5)oc34)cc2)oc2cc(O)cc(O)c12 [LANAROFLAVONE],IC50,[11],0.48 µM
COc1cc2oc(-c3ccc(CN4CCCC4)cc3)cc(=O)c2cc1OC,IC50,[15],0.034 µM
O=c1cc(-c2ccccc2)oc2cc(O)c(O)c(O)c12 [BAICALEIN],IC50,[16],52 µM
same,IC50,[2],93 µM
same,IC50,[17],12800 µM
COc1c(OC)c(OC)c2c(=O)c(OC)c(-c3ccc4c(c3)OCO4)oc2c1OC,Ki,[18],76.5 µM
N=C(NC1CCCCC1)c1ccc2nc(-c3ccc4oc(-c5ccccc5)cc(=O)c4c3)[nH]c2c1,MIC,[13],1.56 µg/mL
O=c1cc(-c2cccc([N+](=O)[O-])c2)oc2ccc(Br)cc12,Ki,[19],0.0015 µM
Cc1ccc2oc(-c3cc(Br)ccc3O)cc(=O)c2c1,Ki,[19],0.0009 µM
O=c1cc(-c2ccc(CN3CCCCC3)cc2)oc2ccccc12,IC50,[15],0.055 µM
O=c1cc(-c2cccc([N+](=O)[O-])c2)oc2ccc([N+](=O)[O-])cc12,Ki,[19],0.0015 µM
O=c1cc(-c2ccc(O)cc2)oc2cc(O)c(O)c(O)c12 [SCUTELLAREIN],IC50,[20],7200 µM
